From patent publication US12590063B2, “Phenol derivative” (Sumitomo Pharma Co., Ltd., priority 2020, dated 2026)
Structures can show the parent of a compound that is named as a salt. Where two headings read alike, the source gives them in different places.

Columns and labels:
[1] = biological target: T1, Human TRPV1 (Homo sapiens, UniProt Q8NER1); assay: Evaluation of agonistic properties using human TRPV1 transiently expressing cells; format: cell-based; conditions: for TRPV-1-agonistic activity (in words): evaluation test for TRPV-1-agonistic properties, summary of Tables 3 and 4
T1 construct: the TRPV1 gene (GenBank NP_542435.2) had been inserted; expressed in transfected cells; host or cells: HEK293 cells (cat #CCL-82.2, ATCC), transient transfection with pcDNA3.1
Description: Test Example 1: Evaluation of Agonistic Properties Using Human TRPV1 Transiently Expressing Cells
(1) Generation of Human TRPV1 Transiently Expressing Cells
Human TRPV1 transiently expressing cells were generated and subjected to culture. Specifically, HEK293 cells (cat #CCL-82.2, ATCC) were used as host cells. Human TRPV1 and apoaequorin were transiently expressed by introducing the mammalian cell expression pcDNA3.1 vector (cat #v790-20, Invitrogen) into which the TRPV1 gene (GenBank NP_542435.2) had been inserted.
The Dulbecco's Modified Eagle's Medium (DMEM) medium (cat #11550-043, Thermo Fisher Scientific) containing 10% inactivated fetal bovine serum (cat #10270-106, Thermo Fisher Scientific) was used as the medium, and the culture was carried out in tissue culture dishes (cat #3020-100, Iwaki). During the culture, cells were collected every 2 to 3 days by treating with PBS containing 10% 2.5 g/1-trypsin/[…] solution, phenol red (cat #32777-44, Nacalai Tesque), and passage culture was carried out.
Three days after the passage, cells were collected with 10% trypsin-PBS treatment at a state of about 80% confluency, suspended in a DMEM medium containing 10% fetal bovine serum to 4000 cells/35 μl/well, and seeded into 384-well plates (cat #353962, FALCON).
The day after seeding, Viviren (cat #E6492, Promega) was added (15 μl/well) to a final concentration of 4.5 μM/HBSS (cat #14065-056, Thermo Fisher Scientific)/90 mM HEPES (cat #17514-15, Nacalai Tesque)/0.1% BSA (cat #01281-84, Nacalai Tesque), and after centrifugation, the samples were allowed to stand at room temperature for 2 hours under light-shielded conditions.
(2) Preparation of Test Compounds
For the test compounds, dimethyl sulfoxide solutions were produced at a concentration 1000 times the final concentration, and from these solutions, solutions at concentration 10 times the final concentration were prepared with Hanks/20 mmol/L HEPES/0.10% BSA (cat #01281-84, Nacalai Tesque).
(3) Evaluation of TRPV1-Agonistic Properties
FDSS7000 (Hamamatsu Photonics K.K.) was used for detection of TRPV1 agonist-stimulated luminescence signals. The test compounds were added to plates to which the cells and luminescent substrates had been added. The luminescence signals (center wavelength: 465 nm) after addition of the test compounds were measured, and the Rlu (Max−Min) was calculated.

[2] = Evaluation test for metabolic stability to S9; format: in vitro ADME; conditions: liver S9 fraction, 37° C., 15 minutes, final compound concentration 10 nM
Protocol: Test Example 4: Evaluation Test for Metabolic Stability to S9
The compounds were added to a reaction solution in which the liver S9 fraction was diluted with phosphate buffer, and incubation was initiated at 37° C. (final compound concentration 10 nM, final volume 300 μL). After incubation for 15 minutes, the reaction was stopped by adding the reaction solution to acetonitrile, and centrifugation was carried out. After filtering the supernatant through a filter, the amount of compounds was determined using LC/MS/MS. From the amount of compounds obtained, the residual rate 15 minutes after the initiation of the reaction was calculated relative to the amount of compounds before the initiation of the reaction (0 minutes).

[3] = HEK293 cells transiently expressing human TRPV1 and apoaequorin, luminescence signal Rlu (Max-Min), read-out: TRPV1 EC50

T1 sequence (Q8NER1 whole entry): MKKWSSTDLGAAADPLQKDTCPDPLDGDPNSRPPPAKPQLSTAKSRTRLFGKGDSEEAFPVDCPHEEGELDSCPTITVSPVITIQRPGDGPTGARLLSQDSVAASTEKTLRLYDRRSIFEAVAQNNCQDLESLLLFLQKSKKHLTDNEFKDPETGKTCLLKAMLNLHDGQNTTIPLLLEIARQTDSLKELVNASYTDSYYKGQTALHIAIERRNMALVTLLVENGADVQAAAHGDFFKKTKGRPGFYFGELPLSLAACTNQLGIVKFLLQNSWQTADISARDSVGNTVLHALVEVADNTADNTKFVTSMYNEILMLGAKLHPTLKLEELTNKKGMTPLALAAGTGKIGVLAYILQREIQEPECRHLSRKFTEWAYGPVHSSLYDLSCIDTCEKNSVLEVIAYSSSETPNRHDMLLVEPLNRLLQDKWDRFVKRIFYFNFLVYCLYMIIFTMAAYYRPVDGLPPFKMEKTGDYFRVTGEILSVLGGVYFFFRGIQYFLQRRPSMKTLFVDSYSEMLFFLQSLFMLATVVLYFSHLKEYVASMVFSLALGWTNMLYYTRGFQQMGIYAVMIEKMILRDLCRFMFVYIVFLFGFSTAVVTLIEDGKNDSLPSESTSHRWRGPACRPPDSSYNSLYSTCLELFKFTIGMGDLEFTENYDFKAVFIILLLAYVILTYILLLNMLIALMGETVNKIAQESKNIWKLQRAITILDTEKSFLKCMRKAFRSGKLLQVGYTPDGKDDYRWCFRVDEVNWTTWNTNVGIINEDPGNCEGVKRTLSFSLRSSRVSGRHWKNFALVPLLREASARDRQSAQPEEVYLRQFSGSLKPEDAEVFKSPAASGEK

| SMILES | EC50 [1, 3] [nM] | Residual rate (%) [2] [%] | TRPV-1-agonistic activity (in words) [1] | EC50 [1] [nM] |
| --- | --- | --- | --- | --- |
| COc1cc(CC(=O)Nc2cccc([C@H]3CC[C@@H](OC(=O)Cc4ccc(Cl)cc4)CC3)c2)ccc1O [Example 14, cis-4-{3-[2-(4-hydroxy-3-methoxyphenyl)acetamido]phenyl}cyclohexyl (4-chlorophenyl)acetate] | 6.3 | 11 |  |  |
| COc1cc(CC(=O)Nc2cccc([C@H]3CC[C@@H](OC(=O)Cc4ccccc4F)CC3)c2)ccc1O [Example 15, cis-4-{3-[2-(4-hydroxy-3-methoxyphenyl)acetamido]phenyl}cyclohexyl (2-fluorophenyl)acetate] | 4.6 | 69 | stronger TRPV-1-agonistic activity |  |
| CCC(=O)Oc1cccc(-c2cccc(NC(=O)Cc3ccc(O)c(OC)c3)c2)c1 [Example 16, 3′-[2-(4-hydroxy-3-methoxyphenyl)acetamido][1,1′-biphenyl]-3-yl propanoate] | 6.3 | <1 |  |  |
| COc1cc(CC(=O)Nc2cccc([C@H]3CC[C@@H](OC(=O)C(C)C)CC3)c2)ccc1O [Example 17, cis-4-{3-[2-(4-hydroxy-3-methoxyphenyl)acetamido]phenyl}cyclohexyl 2-methylpropanoate] | 2.6 | <1 | stronger TRPV-1-agonistic activity |  |
| COc1cc(CC(=O)Nc2cccc(-c3cccc(OC(=O)Cc4ccccc4)c3)c2)ccc1O [Example 18, 3′-[2-(4-hydroxy-3-methoxyphenyl)acetamido][1,1′-biphenyl]-3-yl phenylacetate] |  | <1 |  | 5.4 |
| COc1cc(CC(=O)Nc2ccc(F)c(-c3cccc(OC(=O)C(C)C)c3)c2)ccc1O [Example 19, 2′-fluoro-5′-[2-(4-hydroxy-3-methoxyphenyl)acetamido][1,1′-biphenyl]-3-yl 2-methylpropanoate] | 2.7 | <1 | stronger TRPV-1-agonistic activity |  |
| COc1cc(CC(=O)Nc2cc(-c3cccc(OC(=O)C(C)C)c3)ccc2OC)ccc1O [Example 20, 3′-[2-(4-hydroxy-3-methoxyphenyl)acetamido]-4′-methoxy[1,1′-biphenyl]-3-yl 2-methylpropanoate] | 35.1 | <1 |  |  |
| COc1cc(CC(=O)Nc2cccc(-c3cccc(OC(=O)C(C)C)c3)c2OC)ccc1O [Example 21, 3′-[2-(4-hydroxy-3-methoxyphenyl)acetamido]-2′-methoxy[1,1′-biphenyl]-3-yl 2-methylpropanoate] | 6750 | <1 |  |  |
| COc1cc(CC(=O)Nc2cc(-c3cccc(OC(=O)C(C)C)c3)ccc2F)ccc1O [Example 22, 4′-fluoro-3′-[2-(4-hydroxy-3-methoxyphenyl)acetamido][1,1′-biphenyl]-3-yl 2-methylpropanoate] | 6.8 | <1 |  |  |
| COc1cc(CC(=O)Nc2cccc(-c3cccc(OC(=O)C(C)C)c3)c2F)ccc1O [Example 23, 2′-fluoro-3′-[2-(4-hydroxy-3-methoxyphenyl)acetamido][1,1′-biphenyl]-3-yl 2-methylpropanoate] | 15.2 | <1 |  |  |
| COc1cc(CC(=O)Nc2cccc(-c3cccc(OC(=O)C(C)C)c3)c2)ccc1O [Example 24, 3′-[2-(4-hydroxy-3-methoxyphenyl)acetamido][1,1′-biphenyl]-3-yl 2-methylpropanoate] | 3.9 | <1 | stronger TRPV-1-agonistic activity |  |
| COc1cc(CC(=O)Nc2cc(-c3cccc(OC(=O)C(C)C)c3)ccn2)ccc1O [Example 25, 3-{2-[2-(4-hydroxy-3-methoxyphenyl)acetamido]pyridin-4-yl}phenyl 2-methylpropanoate] | 38 | <1 |  |  |
| COc1cc(CC(=O)Nc2cccc(-c3cccc(OC(=O)Cc4ccc(C)cc4)c3)c2)ccc1O [Example 27, 3′-[2-(4-hydroxy-3-methoxyphenyl)acetamido][1,1′-biphenyl]-3-yl (4-methylphenyl)acetate] | 11.1 | <1 |  |  |
| COc1cc(CC(=O)Nc2cccc(-c3cccc(OC(=O)Cc4ccccc4F)c3)c2)ccc1O [Example 28, 3′-[2-(4-hydroxy-3-methoxyphenyl)acetamido][1,1′-biphenyl]-3-yl (2-fluorophenyl)acetate] | 8.8 | <1 |  |  |
| COc1cc(CC(=O)Nc2cccc(-c3cccc(OC(=O)CC4CCOCC4)c3)c2)ccc1O [Example 29, 3′-[2-(4-hydroxy-3-methoxyphenyl)acetamido][1,1′-biphenyl]-3-yl (oxa-4-yl)acetate] | 13.2 | <1 |  |  |
| COc1cc(CC(=O)Nc2cccc(-c3cccc(OC(=O)CC4CCCCC4)c3)c2)ccc1O [Example 30, 3′-[2-(4-hydroxy-3-methoxyphenyl)acetamido][1,1′-biphenyl]-3-yl cyclohexylacetate] | 7.2 | <1 |  |  |
| COc1cc(CC(=O)Nc2ccnc(-c3cccc(OC(=O)CC4CCCCC4)c3)c2)ccc1O [Example 31, 3-{4-[2-(4-hydroxy-3-methoxyphenyl)acetamido]pyridin-2-yl}phenyl cyclohexylacetate] | 14.9 | <1 |  |  |
| COc1cc(CC(=O)Nc2cccc(-c3cccc(OC(=O)CC4CCCCC4)c3)n2)ccc1O [Example 32, 3-{6-[2-(4-hydroxy-3-methoxyphenyl)acetamido]pyridin-2-yl}phenyl cyclohexylacetate] | 11.6 | 2 |  |  |
| COc1cc(CC(=O)Nc2ccnc(-c3cccc(OC(=O)C4CCCCC4)c3)c2)ccc1O [Example 33, 3-{4-[2-(4-hydroxy-3-methoxyphenyl)acetamido]pyridin-2-yl}phenyl cyclohexanecarboxylate hydrochloride] | 12.5 | <1 |  |  |
| COc1cc(CC(=O)Nc2cccc(-c3cccc(OC(=O)C4CCCCC4)c3)n2)ccc1O [Example 34, 3-{6-[2-(4-hydroxy-3-methoxyphenyl)acetamido]pyridin-2-yl}phenyl cyclohexanecarboxylate] | 12.8 | <1 |  |  |
| COc1cc(CNC(=O)c2cccc(-c3cccc(OC(=O)C(C)C)c3)c2)ccc1O [Example 44, 3′-1{[(4-hydroxy-3-methoxyphenyl)methyl]carbamoyl}[1,1′-biphenyl]-3-yl 2-methylpropanoate] | 10.2 | <1 |  |  |
| COc1cc(CNC(=O)c2cccc(-c3cccc(OC(=O)CC4CCCCC4)c3)c2)ccc1O [Example 45, 3′-{[(4-hydroxy-3-methoxyphenyl)methyl]carbamoyl}[1,1′-biphenyl]-3-yl cyclohexylacetate] | 31.3 | <1 |  |  |
| COc1cc(CNC(=O)c2ccnc(-c3cccc(OC(=O)C(C)C)c3)c2)ccc1O [Example 46, 3-(4-{[(4-hydroxy-3-methoxyphenyl)methyl]carbamoyl}pyridin-2-yl)phenyl 2-methylpropanoate] | 4.3 | <1 | stronger TRPV-1-agonistic activity |  |
